Reference: patent US20070274951A1, “Combinations comprising HCV protease inhibitor(s) and HCV polymerase inhibitor(s), and methods of treatment related thereto” (priority 2006, published 2007)
Where two headings read alike, the source gives them in different places.

Tested on: HCV replicon RNA in replicon cells
Assay: Replicon RNA response to antiviral agent(s), real time PCR (Taqman assay)
Assay type: cell-based
Conditions: Hepatitis C virus, read-out: Inhibitor IC50 in replicon cells
Method: Replicon RNA response to antiviral agent(s) was examined using the HCV protease inhibitor Formula Ia alone or in combination with HCV NS5B polymerase inhibitors 2′-methyl-adenosine, benzothiadiazine, indole-N-acetamide, or NM 107. Likewise, replicon RNA response to antiviral agent(s) was examined using the HCV protease inhibitor SCH 446211 (SCH 6) alone or in combination with HCV polymerase inhibitor ribavirin.
In brief, replicon cells were seeded at 4000 cells/well in 96-well collagen 1-coated Biocoat plates (Becton Dickinson). At 24 hrs post-seeding, replicon cells were treated with the requisite anti-viral agent(s). The final concentration of DMSO was 0.5%, fetal bovine serum was 5%, and G418 (an aminoglycoside used as a selective agent) was 500 μg/ml. Media and anti-viral agent(s) were refreshed daily for 3 days, at which point the cells were washed with PBS and lysed in 1× cell lysis buffer (Ambion cat #8721). The replicon RNA level was measured using real time PCR (Taqman assay). The ampicon was located in NS5B. […] (SEQ ID NO: 2); the probe sequence was FAM-labeled […] (SEQ ID NO: 3). GAPDH RNA was used as endogenous control and was amplified in the same reaction as NS5B (multiplex PCR) using primers and VIC-labeled probe recommended by the manufacture (PE Applied Biosystem). The real-time RT-PCR reactions were run on ABI PRISM 7900HT Sequence Detection System using the following program: 48° C. for 30 min, 95° C. for 10 min, 40 cycles of 95° C. for 15 sec, 60° C. for 1 min. The ΔCT values (CT5B−CTGAPDH) were plotted against drug concentration and fitted to the sigmoid dose response model using SAS (SAS Institute Inc.) or Graphpad PRISM software (Graphpad Software Inc.). The IC50 is the drug dose necessary to achieve ΔCT=1 over the projected baseline. […] Alternatively, to quantitate the absolute amount replicon RNA, a standard curve was established by including serially diluted T7 transcripts of replicon RNA in the Taqman assay. All Taqman reagents were from PE Applied Biosystem. […]

CC(C)(C)NC(=O)N[C@H](C(=O)N1CC2C([C@H]1C(=O)NC(CC1CCC1)C(=O)C(N)=O)C2(C)C)C(C)(C)C (stereo partly drawn) [Formula Ia]
IC50 (cells selected by: Formula Ia + 2′-methyl-adenosine): 3500 nM | IC50 (cells selected by: Formula Ia + Indole-N-acetamide): 2400 nM | IC50 (cells selected by: No treatment): 300 nM
